Biological target: T1, Recombinant cryAB(R120G) protein (Homo sapiens, UniProt P02511, R120G)
T1 sequence (P02511 1-175 R120G): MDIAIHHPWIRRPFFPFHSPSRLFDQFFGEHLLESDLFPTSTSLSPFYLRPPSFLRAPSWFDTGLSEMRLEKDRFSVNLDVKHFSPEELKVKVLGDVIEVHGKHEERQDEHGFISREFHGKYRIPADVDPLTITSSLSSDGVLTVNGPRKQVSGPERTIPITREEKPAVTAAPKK
Assay: Kinetic turbidity aggregation assay of recombinant cryAB(R120G)
Assay type: biochemical
Conditions: for inhibition at 25 µM / % Inhibition of Protein Aggregation, 25 μM cmpd: 25 μM compound; for inhibition at 25 µM: read-out: % Inhibition of Protein Aggregation, 25 μM cmpd; for inhibition at 100 µM: read-out: % Inhibition of Protein Aggregation, 100 μM cmpd; for inhibition at 400 µM: read-out: % Inhibition of Protein Aggregation, 400 μM cmpd; for IC50: inhibition of cryAB(R120G) protein aggregation
Description: Example A-1: Kinetic Turbidity Aggregation Assay of Recombinant cryAB(R120)
Recombinant cryAB(R120G) protein was diluted to 100 μM in assay buffer (50 mM Tris, 100 mM NaCl, 5 mM DTT, 0.01% Triton X-100, 0.05% PEG-8000). Compounds were dissolved in DMSO at 10 mM then typically diluted to 2.5 mM in DMSO and serially diluted 2-fold as necessary. To a 384-well black microplate in quadruplicate was added 81 μL assay buffer, followed by 15 μL protein solution, and 4 μL compound to give a final concentration of 15 μM cryAB(R120G) protein in 4% DMSO. […] N.D. is not determined.

[1] = 15 μM cryAB(R120G), 42° C., absorbance at 550 nm
[2] = 100 μM compound, 15 μM cryAB(R120G), 42° C., absorbance at 550 nm
[3] = 400 μM compound, 15 μM cryAB(R120G), 42° C., absorbance at 550 nm

| inhibition at 25 µM [1] [%] | inhibition at 100 µM [2] [%] | inhibition at 400 µM [3] [%] | IC50 [µM] | % Inhibition of Protein Aggregation, 25 μM cmpd [1] [%] | % Inhibition of Protein Aggregation, 100 μM cmpd [2] [%] | % Inhibition of Protein Aggregation, 400 μM cmpd [3] [%] | Compound |
| --- | --- | --- | --- | --- | --- | --- | --- |
| 59 | 99.7 |  |  |  |  |  | CC1CN(C(CNS(=O)(=O)c2ccc3cc[nH]c3c2)c2cn(C)c3ccccc23)C1 (centres unmarked) [Compound 103, N-(2-(1-methyl-1H-indol-3-yl)-2-(3-methylazetidin-1-yl)ethyl)-1H-indole-6-sulfonamide] |
| 50 | 85.8 | 67.6 |  |  |  |  | CN(C)C(CNS(=O)(=O)c1ccc2cc[nH]c2c1)c1ccc2cc[nH]c2n1 (centres unmarked) [Compound 15, N-(2-(dimethylamino)-2-(1H-pyrrolo[2,3-b]pyridin-6-yl)ethyl)-1H-indole-6-sulfonamide] |
| 28 | 85.1 |  |  |  |  |  | C[C@@H]1CCN([C@H](CNS(=O)(=O)c2ccc3cc[nH]c3c2)c2cn(C)c3ccccc23)C1 [Compound 76, N-((S)-2-(1-methyl-1H-indol-3-yl)-2-((R)-3-methylpyrrolidin-1-yl)ethyl)-1H-indole-6-sulfonamide] |
| 95 | 94.1 |  | ≤ 10 |  |  |  | Cn1cc(C(CNS(=O)(=O)c2ccc3cc[nH]c3c2)NCc2ccccc2)c2ccccc21 (centres unmarked) [Compound 50, N-(2-(benzylamino)-2-(1-methyl-1H-indol-3-yl)ethyl)-1H-indole-6-sulfonamide] |
| 91 | 96.2 |  | ≤ 10 |  |  |  | CN(C)C(CNS(=O)(=O)c1ccc2cc[nH]c2c1)c1cn(C)c2ccc(Cl)cc12 (centres unmarked) [Compound 42, N-(2-(5-chloro-1-methyl-1H-indol-3-yl)-2-(dimethylamino)ethyl)-1H-indole-6-sulfonamide] |
| 63 | 99.3 |  |  |  |  |  | CN(C)C(CNS(=O)(=O)c1ccc2cc[nH]c2c1)c1cn(CC#N)c2ccccc12 (centres unmarked) [Compound 71, N-(2-(1-(cyanomethyl)-1H-indol-3-yl)-2-(dimethylamino)ethyl)-1H-indole-6-sulfonamide] |
| 11 | 74.9 | 81 |  |  |  |  | CC(C)n1cc(C(CNS(=O)(=O)c2cccc3cc[nH]c23)N(C)C)c2ccccc21 (centres unmarked) [Compound 14, N-(2-(dimethylamino)-2-(1-isopropyl-1H-indol-3-yl)ethyl)-1H-indole-7-sulfonamide] |
| 97.7 | 99.1 |  |  |  |  |  | CCn1nc([C@@H](CNS(=O)(=O)c2ccc3cc[nH]c3c2)N2CCC2)c2ccccc21 [Compound 94, (R)-N-(2-(azetidin-1-yl)-2-(1-ethyl-1H-indazol-3-yl)ethyl)-1H-indole-6-sulfonamide] |
|  | 85 |  |  | −35 |  |  | Cn1cc(C(CNS(=O)(=O)c2cccc3[nH]ccc23)N2CCCC2)c2ccccc21 (centres unmarked) [Compound 27, N-(2-(1-methyl-1H-indol-3-yl)-2-(pyrrolidin-1-yl)ethyl)-1H-indole-4-sulfonamide] |
| 23 | 99.6 |  |  |  |  |  | O=S(=O)(NC[C@H](c1cnc2ccccn12)N1CCCC1)c1ccc2cc[nH]c2c1 [Compound 78, (R)-N-(2-(imidazo[1,2-a]pyridin-3-yl)-2-(pyrrolidin-1-yl)ethyl)-1H-indole-6-sulfonamide] |
| 40 | 99.9 |  |  |  |  |  | CO[C@@H]1CCN([C@H](CNS(=O)(=O)c2ccc3cc[nH]c3c2)c2cn(C)c3ccccc23)C1 [Compound 74, N-((S)-2-((R)-3-methoxypyrrolidin-1-yl)-2-(1-methyl-1H-indol-3-yl)ethyl)-1H-indole-6-sulfonamide] |
|  |  |  | ≤ 10 | 84 | 99.5 | 96.6 | CC(C)n1cc(C(CNS(=O)(=O)c2ccc3cc[nH]c3c2)N(C)C)c2ccccc21 (centres unmarked) [Compound 1, N-(2-(dimethylamino)-2-(1-isopropyl-1H-indol-3-yl)ethyl)-1H-indole-6-sulfonamide] |
| 37 | 84.4 |  |  |  |  |  | Cn1cc([C@H](CNS(=O)(=O)c2ccc3cc[nH]c3c2)NCc2cncs2)c2ccccc21 [Compound 85, (R)-N-(2-(1-methyl-1H-indol-3-yl)-2-((thiazol-5-ylmethyl)amino)ethyl)-1H-indole-6-sulfonamide] |
| 16 | 38 |  |  |  |  |  | Cn1cc([C@@H](CNS(=O)(=O)c2ccc3cc[nH]c3c2)N2CCCC2)c2ccncc21 [Compound 82, (S)-N-(2-(1-methyl-1H-pyrrolo[2,3-c]pyridin-3-yl)-2-(pyrrolidin-1-yl)ethyl)-1H-indole-6-sulfonamide] |
| 93 | 99.7 |  |  |  |  |  | C[C@H]1CCCN1[C@@H](CNS(=O)(=O)c1ccc2cc[nH]c2c1)c1cn(C)c2ccccc12 [Compound 65, N-((R)-2-(1-methyl-1H-indol-3-yl)-2-((S)-2-methylpyrrolidin-1-yl)ethyl)-1H-indole-6-sulfonamide] |
| 34 | 81.5 | 99.9 | 10 to 50 |  |  |  | CN(C)C(CNS(=O)(=O)c1ccc2cc[nH]c2c1)c1nn(C)c2ccccc12 (centres unmarked) [Compound 19, N-(2-(dimethylamino)-2-(1-methyl-1H-indazol-3-yl)ethyl)-1H-indole-6-sulfonamide] |
| 76 | 99.8 | 90.7 |  |  |  |  | Cc1ccc2c(c1)c(C(CNS(=O)(=O)c1ccc3cc[nH]c3c1)N(C)C)cn2C (centres unmarked) [Compound 21, N-(2-(1,5-dimethyl-1H-indol-3-yl)-2-(dimethylamino)ethyl)-1H-indole-6-sulfonamide] |
| 14 | 56.2 |  |  |  |  |  | CCn1nc([C@H](CNS(=O)(=O)c2ccc3cc[nH]c3c2)N2CCC2)c2ccccc21 [Compound 95, (S)-N-(2-(azetidin-1-yl)-2-(1-ethyl-1H-indazol-3-yl)ethyl)-1H-indole-6-sulfonamide] |
| -28 | 95.1 |  |  |  |  |  | Cn1cc([C@@H](CNS(=O)(=O)c2ccc3cc[nH]c3c2)N2CCCC2)c2cnccc21 [Compound 80, (S)-N-(2-(1-methyl-1H-pyrrolo[3,2-c]pyridin-3-yl)-2-(pyrrolidin-1-yl)ethyl)-1H-indole-6-sulfonamide] |
| 66.7 | 62.8 | 91.8 |  |  |  |  | CN1CCN(S(=O)(=O)c2ccc3cc[nH]c3c2)CC1c1cn(C)c2ccccc12 (centres unmarked) [Compound 4, 3-(4-((1H-indol-6-yl)sulfonyl)-1-methylpiperazin-2-yl)-1-methyl-1H-indole] |
| 47 | 83.2 |  |  |  |  |  | CN(Cc1cncs1)[C@@H](CNS(=O)(=O)c1ccc2cc[nH]c2c1)c1cn(C)c2ccccc12 [Compound 87, (R)-N-(2-(methyl(thiazol-5-ylmethyl)amino)-2-(1-methyl-1H-indol-3-yl)ethyl)-1H-indole-6-sulfonamide] |
| 23 | 70 |  |  |  |  |  | Cn1cc(C(CNS(=O)(=O)c2ccc3cc[nH]c3c2)N2C[C@H]3COC[C@H]3C2)c2ccccc21 (stereo in doubt) [Compound 31, N-(2-(1-methyl-1H-indol-3-yl)-2-(trans-tetrahydro-1H-furo[3,4-c]pyrrol-5(3H)-yl)ethyl)-1H-indole-6-sulfonamide] |
| -8 | 66.7 |  |  |  |  |  | Cn1cc([C@@H](CNS(=O)(=O)c2ccc3cc[nH]c3c2)N2CC[C@@H](c3ccccc3)C2)c2ccccc21 [Compound 58, N-((S)-2-(1-methyl-1H-indol-3-yl)-2-((S)-3-phenylpyrrolidin-1-yl)ethyl)-1H-indole-6-sulfonamide] |
| 99.6 | 99.8 | 97.9 | ≤ 10 |  |  |  | Cn1cc(C(CNS(=O)(=O)c2ccc3cc[nH]c3c2)N2CCCC2)c2ccccc21 (centres unmarked) [Compound 5, N-(2-(1-methyl-1H-indol-3-yl)-2-(pyrrolidin-1-yl)ethyl)-1H-indole-6-sulfonamide] |
| 57 | 99 | 95.9 |  |  |  |  | CN(C)C(CNS(=O)(=O)c1ccc2cc[nH]c2c1)c1c[nH]c2ccccc12 (centres unmarked) [Compound 22, N-(2-(dimethylamino)-2-(1H-indol-3-yl)ethyl)-1H-indole-6-sulfonamide] |
| 60 | 98.5 |  | 10 to 50 |  |  |  | CN(CCO)C(CNS(=O)(=O)c1ccc2cc[nH]c2c1)c1cn(C)c2ccccc12 (centres unmarked) [Compound 32, N-(2-((2-hydroxyethyl)(methyl)amino)-2-(1-methyl-1H-indol-3-yl)ethyl)-1H-indole-6-sulfonamide] |
| 46 | 80.4 |  |  |  |  |  | Cn1cc(C(CNS(=O)(=O)c2ccc3cc[nH]c3c2)Nc2ccccc2)c2ccccc21 (centres unmarked) [Compound 51, N-(2-(1-methyl-1H-indol-3-yl)-2-(phenylamino)ethyl)-1H-indole-6-sulfonamide] |

— patent US12637425B2, “Compounds and formulations for treating ophthalmic diseases” (Visus Therapeutics, Inc., priority 2020, dated 2026)
